Several values for one entry are separate records, joined by “and”; a condition that tells them apart may be missing. Equal entries are not always repeated.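 Each compound was tested at five concentrations against cells in 96-well plates for 48 hours. GI50 is the concentration that inhibits growth by half. The concentration for full growth arrest is given as TGI.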
Assays:
Assay in all cases: growth of human tumour cells (NCI), 48 h
OVCAR-3 ovarian = test system: OVCAR-3 ovarian
OVCAR-4 ovarian = test system: OVCAR-4 ovarian
IGROV1 ovarian = test system: IGROV1 ovarian
HOP-92 NSCLC = test system: HOP-92 NSCLC
MCF7 breast = test system: MCF7 breast
SK-MEL-2 melanoma = test system: SK-MEL-2 melanoma
UO-31 renal = test system: UO-31 renal
HCT-116 colon = test system: HCT-116 colon
UACC-257 melanoma = test system: UACC-257 melanoma
OVCAR-8 ovarian = test system: OVCAR-8 ovarian

Compound	GI50 (OVCAR-3 ovarian)	TGI (OVCAR-3 ovarian)	GI50 (OVCAR-4 ovarian)	TGI (OVCAR-4 ovarian) [µM]	GI50 (IGROV1 ovarian)	TGI (IGROV1 ovarian) [µM]	GI50 (HOP-92 NSCLC)	TGI (HOP-92 NSCLC)	GI50 (MCF7 breast)	TGI (MCF7 breast) [µM]	GI50 (SK-MEL-2 melanoma)	TGI (SK-MEL-2 melanoma)	GI50 (UO-31 renal)	TGI (UO-31 renal)	GI50 (HCT-116 colon)	TGI (HCT-116 colon) [µM]	GI50 (UACC-257 melanoma)	TGI (UACC-257 melanoma)	GI50 (OVCAR-8 ovarian)	TGI (OVCAR-8 ovarian) [µM]
Nc1n[nH]c2cc(F)c([C@@H]3Nc4ccc5[nH]ncc5c4[C@H]4C5CCC(C5)[C@@H]34)cc12 (stereo not given in full)	167 nM	6.35 µM	0.327 µM	> 50	0.218 µM	15.6	0.24 µM	9.01 µM	115 nM	9.18	0.798 µM	20.1 µM	0.651 µM	30.8 µM	174 nM	1.24	3.98 µM	44.8 µM	0.193 µM	> 30.6
C=C1C(=O)O[C@H]2[C@H]1CC/C(COC(=O)NCc1ccc(Cn3c(=O)sn(-c4ccc(OC)cc4)c3=O)cc1)=C\CC[C@@]1(C)O[C@@H]21	1610 nM	3.04 µM	1.64 µM	3.98	2.85 µM	8.04	1.61 µM	3.47 µM	1770 nM	3.63	3.19 µM	9.46 µM	1.56 µM	2.94 µM	1930 nM	3.78	2.03 µM	4.34 µM	2.37 µM	5.82
COc1ccc(/C=N/NC(=O)c2cccc3cc[nH]c23)cc1O	307 nM	1.89 µM	10.3 µM	> 100	7.91 µM	> 100	18.5 µM	> 74.6 µM	630 nM	> 100	18.9 µM	> 100 µM	6.51 µM	> 100 µM	1720 nM	> 100	> 42.8 µM	> 100 µM	6.2 µM	> 100
O=C1NC(=NC(CO)Cc2ccccc2)S/C1=C\c1ccc2ncccc2c1 (stereo not given)	19800 nM and 2730 nM	> 25 µM and 11.8 µM	> 21.4 µM and 4.17 µM	> 25	12.8 µM and 2.08 µM	> 25	24.2 µM and 6.61 µM	> 25 µM and 19.5 µM	7250 nM and 2980 nM	> 25	10.1 µM and 4.32 µM	> 25 µM and 12.4 µM	16.4 µM and 5.82 µM	> 25 µM and 16.8 µM	9890 nM and 1130 nM	> 25	> 25 µM and 5.79 µM	> 25 µM and 19 µM	> 21.1 µM and 5.24 µM	> 25
CN1CC[C@@H](NC(=O)Nc2ccc(C#N)cc2)C[C@@H]1c1nc2ccccc2[nH]1	> 100000 nM	> 100 µM	100 µM	> 100	> 100 µM	> 100	35.9 µM	> 100 µM	98800 nM	> 100	> 100 µM	> 100 µM	> 78.1 µM	> 100 µM	> 87100 nM	> 100	> 100 µM	> 100 µM	> 100 µM	> 100
CCCCCCCCCCCCC(O)c1ccc(C#CCCCCCCCCCO)o1 (stereo not given)	19100 nM	34 µM	45.1 µM	> 100	25.9 µM	51.8	19.8 µM	37.9 µM	17300 nM	42.3	26.4 µM	81 µM	19.9 µM	38.5 µM	14400 nM	27.4	24.1 µM	51 µM	16.5 µM	33.6

Reference: PubChem BioAssay (NCI)
